Assay results published in ChEMBL document CHEMBL1130694, “Selective chemical modifications of polymyxin B” (Bioorg Med Chem Lett, 1998).
≈ marks a conversion by molar mass, not a printed value.

Experiments:
[1] = system: Pseudomonas; experiment: Compound was tested for antibacterial activity against Pseudomonas organism; assay type: functional
[2] = system: Escherichia coli; experiment: Compound was tested for antibacterial activity against Escherichia coli organism; assay type: functional
[3] = Ratio of LD50 to PD50 was evaluated.; assay type: ADME, organism-based; details: mouse, in vivo
[4] = system: Staphylococcus; experiment: Compound was tested for antibacterial activity against Staphylococcus organism; assay type: functional
[5] = Compound was tested for acute toxicity in mice upon intravenous administration; assay type: organism-based; details: mouse, in vivo
[6] = species on record: Mus musculus; experiment: Compound was tested for protection against Pseudomonas infection in mice; assay type: functional; details: read-out: PD50

Structure (SMILES)	MIC [1] [µg/mL]	MIC [2] [µg/mL]	selectivity ratio [3]	MIC [4] [µg/mL]	LD50 [5] [mg/kg]	ED50 [6] [mg/kg]
CC(C)CCCCC(=O)N[C@@H](CCN)C(=O)N[C@H](C(=O)N[C@@H](CCN)C(=O)N[C@H]1CCNC(=O)[C@H]([C@@H](C)O)NC(=O)[C@H](CCNC(=O)[C@@H](N)C[C@H](CCN)C(=O)OCc2ccccc2)NC(=O)[C@H](CCN)NC(=O)[C@H](CC(C)C)NC(=O)[C@@H](Cc2ccccc2)NC(=O)[C@H](CCN)NC1=O)[C@@H](C)O	0.087 (≈ 0.0599 µM)	0.146 (≈ 0.101 µM)	6.5	0.445 (≈ 0.307 µM)	13	2
CC(C)CCCCC(=O)N[C@@H](CCN)C(=O)N[C@H](C(=O)N[C@@H](CCN)C(=O)N[C@H]1CCNC(=O)[C@H]([C@@H](C)O)NC(=O)[C@H](CCNC(=O)[C@@H](N)CCCN=C(N)N)NC(=O)[C@H](CCN)NC(=O)[C@H](CC(C)C)NC(=O)[C@@H](Cc2ccccc2)NC(=O)[C@H](CCN)NC1=O)[C@@H](C)O	0.03 (≈ 0.0223 µM)	0.16 (≈ 0.119 µM)	60	2 (≈ 1.49 µM)	15	0.25
